Experimental data published in patent publication US8470736B2, “Turfgrass quality” (Syngenta Crop Protection, LLC, priority 2008, dated 2013).

Columns and labels:
Assay type in all cases: in vivo
[1] = system: bentgrass (Agrostis palustris) variety Crenshaw; experiment: Turfgrass colour assessment, Example 1; settings: 43 DA-A (17 DA-B)
Procedure: (§1) Compositions comprising methyl jasmonate (as a SL formulation, purchased from Fischer), trinexapac-ethyl (in the form of Primo MAXX®), or both (as a tank mix) were tested at various rates for effects on bentgrass (Agrostis palustris) variety Crenshaw. All treatments included the adjuvant NIS, at 0.25% v/v. Assessments of percentage injury to the turfgrass, and turfgrass quality (on a standard scale of 1 to 9) were made at various time intervals after treatment.

[2] = system: bentgrass (Agrostis palustris) variety A1; experiment: Colour (greenness) assessment, Example 2; settings: jasmonic acid 0 g ai/ha
Procedure: Compositions comprising methyl jasmonate (purchased from Aldrich), trinexapac-ethyl (in the form of Primo MAXX® 120EC), or both (as a tank mix) were tested at various rates for effects on bentgrass (Agrostis palustris) variety A1. Assessments of greenness were made at 5 and 12 days after the second treatment.

[3] = system: bentgrass (Agrostis palustris) variety Crenshaw; experiment: Turfgrass quality assessment, Example 1
Procedure: as §1

[4] = system: bentgrass (Agrostis palustris) variety Crenshaw; experiment: Percentage injury to the turfgrass, Example 1; settings: TXP 96 g ai/ha, methyl jasmonate 0 g ai/ha
Procedure: Compositions comprising methyl jasmonate (as a SL formulation, purchased from Fischer), trinexapac-ethyl (in the form of Primo MAXX®), or both (as a tank mix) were tested at various rates for effects on bentgrass (Agrostis palustris) variety Crenshaw. All treatments included the adjuvant NIS, at 0.25% v/v.

[5] = system: bentgrass (Agrostis palustris) variety A1; experiment: Colour (greenness) assessment, Example 2; settings: TXP 0 g ai/ha

Q: Which “Colour (scale: 1 poor to 9 excellent)” value ([1]; TXP 96 g ai/ha, methyl jasmonate 0 g ai/ha) does the source give for `CCOC(=O)C1CC(=O)C(=C(O)C2CC2)C(=O)C1` (stereo not shown) [Trinexapac-ethyl only, trinexapac-ethyl] here?
A: 7.3

Q: And the “Greenness (scale of 1-10 by comparison with the untreated control)” value (shortened to “Greenness”) ([2]; TXP 57 g ai/ha, 5 DA-B)?
A: 0.0

Q: And the “Greenness” value ([2]; TXP 57 g ai/ha, 12 DA-B)?
A: 0.0

Q: What about the “Greenness” value ([2]; TXP 96 g ai/ha, 5 DA-B) of the same compound?
A: 3.5

Q: And the “Greenness” value ([2]; TXP 96 g ai/ha, 12 DA-B)?
A: 3.5

Q: What about the “Quality (scale: 1 poor to 9 excellent)” value ([3]; TXP 96 g ai/ha, methyl jasmonate 0 g ai/ha, 33 DA-A (7 DA-B)) of the same compound?
A: 7.2

Q: And the “Quality (scale: 1 poor to 9 excellent)” value ([3]; TXP 96 g ai/ha, methyl jasmonate 0 g ai/ha, 43 DA-A (17 DA-B))?
A: 7.4

Q: And the “Quality (scale: 1 poor to 9 excellent)” value ([3]; TXP 96 g ai/ha, methyl jasmonate 0 g ai/ha, 56 DA-A (30 DA-B))?
A: 7.0

Q: And the “Injury (%)” value ([4]; 8 DA-A)?
A: 5%

Q: What about the “Injury (%)” value ([4]; 14 DA-A) of the same compound?
A: 7%

Q: What does the source list for `CC/C=C\C[C@H]1C(=O)CC[C@@H]1CC(=O)OC` [Methyl jasmonate only, methyl (1R,2R)-3-Oxo-2-(2Z)-2-pentenyl-cyclopentaneacetate]?
A: Colour (scale: 1 poor to 9 excellent) ([1]; TXP 0 g ai/ha, methyl jasmonate 168 g ai/ha): 7.2; Colour (scale: 1 poor to 9 excellent) ([1]; TXP 0 g ai/ha, methyl jasmonate 336 g ai/ha): 7.2; Colour (scale: 1 poor to 9 excellent) ([1]; TXP 0 g ai/ha, methyl jasmonate 670 g ai/ha): 7.0; Greenness (scale of 1-10 by comparison with the untreated control) ([5]; jasmonic acid 168 g ai/ha, 5 DA-B): 0.0; Greenness (scale of 1-10 by comparison with the untreated control) ([5]; jasmonic acid 168 g ai/ha, 12 DA-B): 0.5; Greenness (scale of 1-10 by comparison with the untreated control) ([5]; jasmonic acid 336 g ai/ha, 5 DA-B): 0.0; Greenness (scale of 1-10 by comparison with the untreated control) ([5]; jasmonic acid 336 g ai/ha, 12 DA-B): 0.0; Greenness (scale of 1-10 by comparison with the untreated control) ([5]; jasmonic acid 672 g ai/ha, 5 DA-B): 0.0; Greenness (scale of 1-10 by comparison with the untreated control) ([5]; jasmonic acid 672 g ai/ha, 12 DA-B): 0.0; Quality (scale: 1 poor to 9 excellent) ([3]; TXP 0 g ai/ha, methyl jasmonate 168 g ai/ha, 33 DA-A (7 DA-B)): 7.1; Quality (scale: 1 poor to 9 excellent) ([3]; TXP 0 g ai/ha, methyl jasmonate 168 g ai/ha, 43 DA-A (17 DA-B)): 7.2; Quality (scale: 1 poor to 9 excellent) ([3]; TXP 0 g ai/ha, methyl jasmonate 168 g ai/ha, 56 DA-A (30 DA-B)): 7.0; Quality (scale: 1 poor to 9 excellent) ([3]; TXP 0 g ai/ha, methyl jasmonate 336 g ai/ha, 33 DA-A (7 DA-B)): 7.0; Quality (scale: 1 poor to 9 excellent) ([3]; TXP 0 g ai/ha, methyl jasmonate 336 g ai/ha, 43 DA-A (17 DA-B)): 7.2; Quality (scale: 1 poor to 9 excellent) ([3]; TXP 0 g ai/ha, methyl jasmonate 336 g ai/ha, 56 DA-A (30 DA-B)): 7.0; Quality (scale: 1 poor to 9 excellent) ([3]; TXP 0 g ai/ha, methyl jasmonate 670 g ai/ha, 33 DA-A (7 DA-B)): 6.9; Quality (scale: 1 poor to 9 excellent) ([3]; TXP 0 g ai/ha, methyl jasmonate 670 g ai/ha, 43 DA-A (17 DA-B)): 7.0; Quality (scale: 1 poor to 9 excellent) ([3]; TXP 0 g ai/ha, methyl jasmonate 670 g ai/ha, 56 DA-A (30 DA-B)): 7.0
